What all share (type): functional
Holding throughout (settings): read-out: DIZ

The subject of one test is Escherichia coli. Kind of test: Antibacterial activity against Escherichia coli assessed as growth inhibition at 10 mg/ml by drug sensitive assay.
For test [1], the system named is Bacillus subtilis. The test is described as follows: Antibacterial activity against Bacillus subtilis assessed as growth inhibition at 1 mg/ml by drug sensitive assay.
Test [2] concerns Staphylococcus aureus. Kind of test: Antibacterial activity against Staphylococcus aureus assessed as growth inhibition at 1 mg/ml by drug sensitive assay.
For test [3], the system named is Bacillus subtilis. Kind of test: Antibacterial activity against Bacillus subtilis assessed as growth inhibition at 10 mg/ml by drug sensitive assay.
The test system of test [4] is Staphylococcus aureus. The test is described as follows: Antibacterial activity against Staphylococcus aureus assessed as growth inhibition at 10 mg/ml by drug sensitive assay.

The record followed here is ChEMBL document CHEMBL3751812, “Novel skeleton compound Allomyrinanoid A and two purine alkaloids from the adult of Allomyrina dichotoma L” (2016).

In the case of `Nc1ncnc2c1ncn2/C=N\O` (stereo in doubt; 2), the zone of inhibition at 10000 µg/mL in the test on Escherichia coli came to 5.5 mm.

Consider `CC1(C)S[C@@H]2[C@H](NC(=O)Cc3ccccc3)C(=O)N2[C@H]1C(=O)O` [PENICILLIN G], for which the values for the zone of inhibition at 1000 µg/mL with Bacillus subtilis [1] and in the test with Staphylococcus aureus [2] were 10 mm and 9 mm, respectively. The zone of inhibition at 10000 µg/mL with Bacillus subtilis [3] came out at 18 mm; in the test with Staphylococcus aureus [4], 17 mm.

For `CNC(=O)[C@H]1CCC[C@@H](C(=O)O)[C@@H](C)[C@H](C)[C@H](C)[C@@H]1C`, the zone of inhibition at 10000 µg/mL in the test on Bacillus subtilis [3] was 4.5 mm.
